Data taken from patent US5849690A, “Anti-aggregatory peptides” (SmithKline Beecham Corporation, priority 1992, dated 1998).
Entries after “also recorded” stand apart in the source; their conditions may differ. Residues, ends and D or L forms follow the SMILES beside them.

Columns and labels:
preformed human clot = test: Human clot lysis assay (tPA induced fibrinolysis); type: biochemical
Procedure: The human clot lysis assay is used to assess the in vitro effect of anti-fibrotic peptide on tPA induced fibrinolysis. Outdated, citrated, human plasma from the American Red Cross is spun for 20 min. at 1300X g to remove remaining blood cells. A solution consisting of plasma, ^125 I-fibrinogen, calcium chloride and thrombin is added to 6 mm tissue culture plates and incubated 15 to 18 hrs. at 37° C. The next morning, each well is rinsed to release the clot. Clots are washed twice with Tris-buffered saline, containing heparin and albumin. Each clot is then added to 1.0 ml of the same plasma used to prepare the clot. tPA is added to tubes over a concentration range of 7 to 250 ng/ml (final concentration). Tubes are incubated at 37° C. with gentle rotation for 4 hrs. At the end of 4 hrs., a 25 μl aliquot is removed and counted to measure ^125 I released from the clot. All samples are run in triplicate.

[1] = tested on: platelet aggregation/thrombus formation; test: In vivo inhibition of thrombus formation, coronary thrombosis model in anesthetized dogs; design: species or system dog
Procedure: Briefly, a small Lexan® cylinder is placed around a mechanically damaged left circumflex coronary artery to produce a fixed partial obstruction of 80-90%. Under these conditions, platelets adhere to the exposed subendothelial collagen and aggregate at the obstructed site. Aggregation is assessed as a gradual reduction in blood flow over 2-3 min. until the thrombus is mechanically dislodged from the lumen of the obstructed vessel and coronary blood flow is restored. This process is allowed to repeat itself every 2-3 min. through the control period of the experiment.

[2] = Stability of the peptide to plasma proteases (3 hrs. incubation in PRP before agonist); type: in vitro ADME, dog; settings: peptide incubated 3 hrs. in PRP prior to addition of agonist
Procedure: (§1) Blood was collected (citrated to prevent coagulation) from, naive, adult mongrel dogs. Platelet rich plasma, PRP, was prepared by centrifugation at 150×g for 10 min. at room temperature. Washed platelets were prepared by centrifuging PRP at 800×g for 10 min. The cell pellet thus obtained was washed twice in Tyrode's buffer (pH 6.5) without Ca^2+ and resuspended in Tyrode's buffer (pH 7.4) containing 1.8 mM Ca^2+ at […]. Peptides were added 3 min. prior to the agonist in all assays of platelet aggregation. Final agonist concentrations were 0.1 unit/ml thrombin and 2 μM ADP (Sigma). Aggregation was monitored in a Chrono-Log Lumi-Aggregometer. Light transmittance 5 min. after addition of the agonist was used to calculate percent aggregation according to the formula % aggregation=[(90-CR).div.(90-10)]×100, where CR is the chart reading, 90 is the baseline, and 10 is the PRP blank reading. IC50 's were determined by plotting [% inhibition of aggregation] vs. [concentration of peptide]. Peptides were assayed at 200 μM and diluted sequentially by a factor of 2 to establish a suitable dose response curve.
To assess the stability of the peptide to plasma proteases, the peptides were incubated for 3 hrs. (rather than 3 min.) in the PRP prior to addition of the agonist.

[3] = target: T1, Platelet rich plasma, PRP (Canis lupus familiaris, UniProt A0A8I3N5G5+A0A8I3PMU9); test: Inhibition of platelet aggregation, PRP/ADP; type: cell-based; settings: dog platelet rich plasma, 2 μM ADP, peptide added 3 min. prior to agonist; read-out: Antiaggregatory Activity IC50, μM PRP/ADP
T1 sequence (A0A8I3N5G5 1-1047): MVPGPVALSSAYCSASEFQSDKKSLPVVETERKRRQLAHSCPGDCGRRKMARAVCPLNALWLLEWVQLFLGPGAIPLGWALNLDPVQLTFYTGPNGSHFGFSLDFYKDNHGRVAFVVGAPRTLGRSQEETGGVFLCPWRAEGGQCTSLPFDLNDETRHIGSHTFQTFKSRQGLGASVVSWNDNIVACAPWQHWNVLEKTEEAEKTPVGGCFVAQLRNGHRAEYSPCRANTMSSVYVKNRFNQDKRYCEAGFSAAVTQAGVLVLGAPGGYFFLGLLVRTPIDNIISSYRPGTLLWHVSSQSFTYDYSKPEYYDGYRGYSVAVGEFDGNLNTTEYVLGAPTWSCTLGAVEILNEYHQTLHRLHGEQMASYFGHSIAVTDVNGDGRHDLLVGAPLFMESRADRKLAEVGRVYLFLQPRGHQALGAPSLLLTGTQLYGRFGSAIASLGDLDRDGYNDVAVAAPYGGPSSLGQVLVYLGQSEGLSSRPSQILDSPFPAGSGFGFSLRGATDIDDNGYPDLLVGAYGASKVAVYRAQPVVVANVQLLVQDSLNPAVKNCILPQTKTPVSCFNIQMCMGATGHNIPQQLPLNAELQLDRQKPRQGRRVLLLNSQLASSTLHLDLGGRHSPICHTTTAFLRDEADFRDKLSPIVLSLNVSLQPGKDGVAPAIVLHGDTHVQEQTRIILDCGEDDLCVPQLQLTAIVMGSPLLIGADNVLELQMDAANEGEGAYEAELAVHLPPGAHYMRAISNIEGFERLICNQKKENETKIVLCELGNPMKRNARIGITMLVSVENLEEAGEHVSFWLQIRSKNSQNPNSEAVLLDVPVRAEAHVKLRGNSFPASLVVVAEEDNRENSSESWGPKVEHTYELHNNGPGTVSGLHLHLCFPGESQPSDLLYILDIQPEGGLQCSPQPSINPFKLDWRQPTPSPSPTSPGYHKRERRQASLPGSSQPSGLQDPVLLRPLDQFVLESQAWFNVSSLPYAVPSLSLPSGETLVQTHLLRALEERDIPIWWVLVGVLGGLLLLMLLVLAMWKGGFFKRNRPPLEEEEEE
T1 sequence (A0A8I3PMU9 1-919): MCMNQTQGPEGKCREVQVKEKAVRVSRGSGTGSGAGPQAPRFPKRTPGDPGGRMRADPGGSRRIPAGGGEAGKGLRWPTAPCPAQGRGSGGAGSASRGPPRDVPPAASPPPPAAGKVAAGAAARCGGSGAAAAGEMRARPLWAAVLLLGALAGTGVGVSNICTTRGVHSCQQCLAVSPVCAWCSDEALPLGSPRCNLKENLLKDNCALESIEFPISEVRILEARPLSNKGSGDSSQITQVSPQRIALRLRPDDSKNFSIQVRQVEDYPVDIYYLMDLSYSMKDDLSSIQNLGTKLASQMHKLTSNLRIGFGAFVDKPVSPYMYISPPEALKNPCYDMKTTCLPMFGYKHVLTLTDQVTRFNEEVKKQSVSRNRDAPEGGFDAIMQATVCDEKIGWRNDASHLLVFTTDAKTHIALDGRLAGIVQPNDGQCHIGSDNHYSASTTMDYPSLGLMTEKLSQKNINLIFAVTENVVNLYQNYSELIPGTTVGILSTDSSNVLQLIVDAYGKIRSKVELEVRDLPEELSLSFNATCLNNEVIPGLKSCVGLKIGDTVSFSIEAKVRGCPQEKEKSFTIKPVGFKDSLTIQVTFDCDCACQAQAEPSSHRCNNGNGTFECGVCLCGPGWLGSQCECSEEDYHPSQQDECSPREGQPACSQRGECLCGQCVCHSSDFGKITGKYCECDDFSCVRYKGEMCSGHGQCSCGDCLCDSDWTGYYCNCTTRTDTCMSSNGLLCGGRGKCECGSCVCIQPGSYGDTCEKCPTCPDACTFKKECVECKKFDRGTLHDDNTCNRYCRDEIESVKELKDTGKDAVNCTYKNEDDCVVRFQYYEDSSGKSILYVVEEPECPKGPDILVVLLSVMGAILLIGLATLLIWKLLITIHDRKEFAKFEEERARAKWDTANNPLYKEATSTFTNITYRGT
Procedure: as §1

Washed platelets = target: T2, Washed platelets (Canis lupus familiaris, UniProt A0A8I3N5G5+A0A8I3PMU9); test: Inhibition of platelet aggregation, WP/Thrombin; type: cell-based; settings: dog washed platelets, 0.1 unit/ml thrombin, peptide added 3 min. prior to agonist; read-out: Antiaggregatory Activity IC50, μM WP/Thrombin
T2 sequence (A0A8I3N5G5 1-1047): T1 sequence (A0A8I3N5G5 1-1047)
T2 sequence (A0A8I3PMU9 1-919): T1 sequence (A0A8I3PMU9 1-919)
Procedure: as §1

| Molecule | % Activity after 3 hr. in PRP [2] [%] | IC50 [3] [µM] | IC50 (Washed platelets) [µM] | also measured |
| --- | --- | --- | --- | --- |
| CC(=O)N[C@@H](CCCNC(=N)N)C(=O)NCC(=O)N[C@@H](CC(=O)O)C(=O)N[C@@H](CO)C(N)=O [Example 27, N^α -Ac-Arg-Gly-Asp-Ser-NH2] (Ac-RGDS-NH2) |  |  |  | effect upon tPA promoted human clot lysis in vitro (preformed human clot; 1 mM peptide, listed as Ac-RGDS-NH2): no interaction; also recorded: no effect; inhibition of thrombus formation (mean coronary blood flow) ([1]; 400 mM at 0.013 ml/min.): partial inhibition with prolongation of time to complete blockage; inhibition of thrombus formation (mean coronary blood flow) ([1]; 400 mM at 0.026 ml/min. infusion, listed as Ac-RGDS-NH2): moderate inhibition with spontaneous sloughing off of the thrombus; also recorded: moderate inhibition with spontaneous sloughing off of thrombi; inhibition of thrombus formation (mean coronary blood flow) ([1]; 400 mM at 0.052 ml/min. infusion rate): complete inhibition of thrombus formation; inhibition of thrombus formation (coronary blood flow) ([1]; coronary infusion 400 mM at 0.1 ml/min, listed as Ac-RGDS-NH2): complete inhibition of thrombus formation |
| CC(=O)N(C)[C@@H](CCCNC(=N)N)C(=O)NCC(=O)N[C@@H](CC(=O)O)C(=O)N[C@@H](Cc1ccccc1)C(N)=O [Example 35, N^α -Ac-MeArg-Gly-Asp-Phe-NH2] (HELM PEPTIDE1{[ac].[meR].G.D.F.[am]}$$$$V2.0) | 100 | 10.8 |  |  |
| CC(=O)N[C@H]1CSSC[C@@H](C(N)=O)NC(=O)[C@H](CO)NC(=O)[C@H](CC(=O)O)NC(=O)CNC(=O)[C@H](CCCN=C(N)N)NC1=O [Example 3, N^α -Ac-Cyclo(S,S) Cys-Arg-Gly-Asp-Ser-Cys-NH2] (HELM PEPTIDE1{[ac].C.R.G.D.S.C.[am]}$PEPTIDE1,PEPTIDE1,2:R3-7:R3$$$V2.0) |  |  | 54.3 |  |
| CC(=O)N[C@@H](CCCNC(=N)N)C(=O)NCC(=O)N[C@@H](CC(=O)O)C(=O)N[C@@H](Cc1ccc2ccccc2c1)C(N)=O [Example 32, N^α -Ac-Arg-Gly-Asp-Nal-NH2] (HELM PEPTIDE1{[ac].R.G.D.[O=C([C@H](Cc1ccc2ccccc2c1)N[*:1])[*:2]].[am]}$$$$V2.0) | 100 | 40.5 |  |  |
| CC(=O)N[C@H]1CSSC2(CCCCC2)C(C(N)=O)NC(=O)[C@H](CC(=O)O)NC(=O)CNC(=O)[C@H](CCCNC(=N)N)NC1=O (stereo partly drawn) [Example 2, N^α -Ac-Cyclo(S,S) Cys-Arg-Gly-Asp-(D,L) APmp-NH2] (HELM PEPTIDE1{[ac].C.R.G.D.[O=C(C(N[*:1])C1(S[*:3])CCCCC1)[*:2]].[am]}$PEPTIDE1,PEPTIDE1,2:R3-6:R3$$$V2.0) | 100 | 1.53 |  |  |
| CC(=O)N(C)[C@@H](CCCNC(=N)N)C(=O)NCC(=O)N[C@@H](CC(=O)O)C(=O)N[C@@H](CO)C(N)=O [Example 26, N^α -Ac-N a-MeArg-Gly-Asp-Ser-NH2] (HELM PEPTIDE1{[ac].[meR].G.D.S.[am]}$$$$V2.0) | 100 | 7.4 | 28.2 |  |
| tPA(MT2N3): tissue plasminogen activator (tPA), fibrinolytic agent used to induce clot lysis |  |  |  | EC50 of tPA-induced clot lysis, control period (preformed human clot; % clot lysis at 4 hours, tPA alone): 31.5 ± 9.9 µg/mL |
| CC(=O)N[C@H]1CSSC[C@@H](C(N)=O)NC(=O)[C@H](CO)NC(=O)[C@H](CC(=O)O)NC(=O)CNC(=O)[C@H](CCCNC(=N)N)N(C)C1=O [Example 1, N^α -Ac-Cyclo(S,S) Cys-MeArg-Gly-Asp-Ser-Cys-NH2] (HELM PEPTIDE1{[ac].C.[meR].G.D.S.C.[am]}$PEPTIDE1,PEPTIDE1,2:R3-7:R3$$$V2.0) | 100 | 1.1 |  |  |
| CC(=O)N[C@@H](CCCN=C(N)N)C(=O)NCC(=O)N[C@@H](CC(=O)O)C(=O)N[C@@H](CO)C(N)=O [Example 27, N^α -Ac-Arg-Gly-Asp-Ser-NH2] (Ac-RGDS-NH2) | 0 |  |  | effect of infusion upon coronary arterial blood pressure ([1]; 400 mM at 0.1 ml/min): no effect |
| N^α -Ac-Arg-Gly-Asp-Tyr-NH2 [Example 28] | 98 | 102 | 137 |  |
| CC(=O)N[C@@H](CCCN=C(N)N)C(=O)NCC(=O)N[C@@H](CC(=O)O)C(N)=O [Example 29, N^α -Ac-Arg-Gly-Asp-NH2] |  | 138 | 356 |  |
